Experimental findings from US20250049776A1, “AUTOPHAGY INDUCING COMPOUNDS AND USES THEREOF, IN PARTICULAR FOR A SYSTEMIC TREATMENT OF DISEASES AND CONDITIONS” (Samsara Therapeutics Inc., priority 2021, published 2025) are described below.

Some results are limits rather than exact numbers.

For assay [1], the system named is Human osteosarcoma U20S cells. The assay is described as follows: Assay to measure lysosome and autolysosome formation (acidic vesicle formation, LysoView/LysoTracker staining). Format: cell-based. Conditions: for activation at 0.8 µM: Homo sapiens, U2OS cells, concentration of 0.8 μM, read-out: Activity (percentage increase in acidic vesicle formation over the DMSO-treated control), Table 2. The gist of the method: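 U2OS cells treated with compounds in DMSO for 24 h, then stained 45 min at 37 °C with 1× LysoView 633 or 50 nM LysoTracker Deep Red, with Hoechst nuclear counterstain. Live-cell fluorescence imaging at 37 °C; acidic vesicle formation judged against DMSO-treated control.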

The test system of the next assay is SH-SY5Y cells. The assay is described as follows: Acidic vesicle formation in SH-SY5Y cells (LysoTracker Deep Red). Format: cell-based. Conditions: 24 hours. The method, then: This is evidence for significant stimulation of autophagy by this compound under these conditions. A brief description of the procedure is outlined here: • Day 1: Cells were seeded at 15K cells/well in the middle 60 wells of 6×96 well Cellvis imaging plates • Day 2: Media was replaced with 90 μl of DMEM/F12 (+10% FBS/1% P/S) containing NucBlue Live and the cells were treated with 10 μl of compound (10× concentrated) in triplicate for 24 hours. • Day3: Treatment was removed and cells were incubated for 30 minutes with LysoTracker™ Deep Red dye. Cells were washed twice with media and immediately imaged on EVOS M7000 at x20 (6 images per well, 30 minutes imaging time/plate). Images were analysed using Celleste Image analysis software.

On to `CC(C)N(C(=O)c1csc(-c2cnn(-c3ccccc3)c2)n1)[C@H]1CCNC1` [Compound 311, 2-(1-phenyl-1H-pyrazol-4-yl)-N-(propan-2-yl)-N-[(3S)-pyrrolidin-3-yl]-1,3-thiazole-4-carboxamide], for which the activation at 0.8 µM in assay [1] fell in the range of 50 to 100%. Further, in the assay on SH-SY5Y cells, the “Fold change at compound concentration of 0.8 μM (acidic vesicle formation relative to DMSO-treated control)” value is given as 2.3 and the “Fold change at compound concentration of 10 μM (acidic vesicle formation relative to DMSO-treated control)” value is listed as 3.5.
For `CC(C)N(C(=O)c1ccc(-c2cnn(-c3ccccc3)c2)[nH]1)[C@@H]1CCNC1` [Compound 313, 5-(1-phenyl-1H-pyrazol-4-yl)-N-(propan-2-yl)-N-[(3R)-pyrrolidin-3-yl]-1H-pyrrole-2-carboxamide] the same measures were over 100%, 2.0 and 13.2.
For the molecule `CC(C)N(C(=O)c1ccc(-c2cnn(-c3ccccc3)c2)[nH]1)[C@H]1CCNC1` [Compound 314, 5-(1-phenyl-1H-pyrazol-4-yl)-N-(propan-2-yl)-N-[(3S)-pyrrolidin-3-yl]-1H-pyrrole-2-carboxamide], the activation at 0.8 µM in assay [1] is over 100%. Moreover, in the assay on SH-SY5Y cells, the “Fold change at compound concentration of 0.8 μM (acidic vesicle formation relative to DMSO-treated control)” value is 2.0 and the “Fold change at compound concentration of 10 μM (acidic vesicle formation relative to DMSO-treated control)” value is reported as 14.3.
For `CC(C)N(C(=O)c1csc(-c2cnn(-c3ccccc3)c2)n1)C1CC2(CNC2)C1` [Compound 319, N-{2-azaspiro[3.3]heptan-6-yl}-2-(1-phenyl-1H-pyrazol-4-yl)-N-(propan-2-yl)-1,3-thiazole-4-carboxamide] the same measures were 30 to 50%, 2.4 and 2.7.
In the case of `CC(C)N(C(=O)c1csc(-c2cnn(-c3ccccc3)c2)n1)C1C[C@H]2CNC[C@H]2C1` (stereo partly drawn) [Compound 320, N-[(3aR,6aS)-octahydrocyclopenta[c]pyrrol-5-yl]-2-(1-phenyl-1H-pyrazol-4-yl)-N-(propan-2-yl)-1,3-thiazole-4-carboxamide], the “increase in acidic vesicle formation” value in assay [1] (U20S cells, relative to DMSO-treated control (10 μM)) is reported as “only a slight increase”. Moreover, in the assay on SH-SY5Y cells, the “Fold change at compound concentration of 0.8 μM (acidic vesicle formation relative to DMSO-treated control)” value was determined as 1.9 and the “Fold change at compound concentration of 10 μM (acidic vesicle formation relative to DMSO-treated control)” value was found to be 3.3.
